Source: US9890117B2, “Benzamide compounds and related methods of use” (Northwestern University, priority 2012, dated 2018)
Structures can show the parent of a compound that is named as a salt.

What was measured:
SIRT2 = target: T1, SIRT2 (Homo sapiens, UniProt Q8IXJ6); test: Fluor-de-Lys biochemical sirtuin deacetylation assay, SIRT2; conditions: 10 μM
T1 construct: recombinant active enzymes SIRT1, SIRT2, and the catalytically active fragment of SIRT3
T1 sequence (Q8IXJ6 1-389): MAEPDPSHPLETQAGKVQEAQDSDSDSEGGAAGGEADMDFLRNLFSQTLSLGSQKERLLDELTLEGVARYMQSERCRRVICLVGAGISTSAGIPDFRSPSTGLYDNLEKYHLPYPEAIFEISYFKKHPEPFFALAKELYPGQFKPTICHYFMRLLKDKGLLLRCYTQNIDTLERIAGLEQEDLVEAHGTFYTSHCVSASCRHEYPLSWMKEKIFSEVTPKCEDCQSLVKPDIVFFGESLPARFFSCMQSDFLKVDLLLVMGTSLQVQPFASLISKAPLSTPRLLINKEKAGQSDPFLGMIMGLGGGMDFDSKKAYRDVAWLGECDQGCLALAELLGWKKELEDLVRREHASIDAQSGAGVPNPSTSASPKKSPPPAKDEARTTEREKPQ

SMILES | melting point | inhibition at 10 µM (SIRT2)
CN(c1ccc(Cl)cc1)S(=O)(=O)c1cccc(C(=O)Nc2ccc(C#N)cc2F)c1 [Compound 203Ab, 3-(N-(4-chlorophenyl)-N-methylsulfamoyl)-N-(4-cyano-2-fluorophenyl)benzamide] | 158 to 159 °C | 
CN(C(=O)c1cccc(S(=O)(=O)N(C)c2ccc(Cl)cc2)c1)c1ccc(C#N)cc1F [Compound 203Ac, 3-(N-(4-chlorophenyl)-N-methylsulfamoyl)-N-(4-cyano-2-fluorophenyl)-N-methylbenzamide] | 169 to 170 °C | 15%
CN(c1ccc(S(C)(=O)=O)cc1)S(=O)(=O)c1cccc(C(=O)Nc2ccc(Cl)cc2F)c1 [Compound 203Ae, N-(4-chloro-2-fluorophenyl)-3-(N-methyl-N-(4-(methylsulfonyl)phenyl)sulfamoyl)-benzamide] | 182 to 183 °C | 26%
CN(c1ccc(CN)cc1)S(=O)(=O)c1cccc(C(=O)Nc2ccc(C#N)cc2)c1.Cl [Compound 203Af, 3-(N-(4-(aminomethyl)phenyl)-N-methylsulfamoyl)-N-(4-cyanophenyl)benzamide hydrochloride] | 169 to 171 °C | 15%
CN(C(=O)c1cccc(S(=O)(=O)N(C)c2ccc([S+](C)[O-])cc2)c1)c1ccc(Cl)cc1F (stereo not drawn) [Compound 203Ag, N-(4-chloro-2-fluorophenyl)-N-methyl-3-(N-methyl-N-(4-(methylsulfinyl)phenyl)-sulfamoyl)benzamide] | 104 to 106 °C | 14%
CN(C(=O)c1cccc(S(=O)(=O)N(C)c2ccc(S(C)(=O)=O)cc2)c1)c1ccc(Cl)cc1F [Compound 203Ah, N-(4-chloro-2-fluorophenyl)-N-methyl-3-(N-methyl-N-(4-(methylsulfonyl)phenyl)-sulfamoyl)benzamide] | 159 to 160 °C | 16%
CN(c1ccc(S(C)(=O)=O)cc1)S(=O)(=O)c1cccc(C(=O)Nc2ccc(C#N)cc2F)c1 [Compound 203Ai, N-(4-cyano-2-fluorophenyl)-3-(N-methyl-N-(4-(methylsulfonyl)phenyl)-sulfamoyl)benzamide] | 188 to 189 °C | 16%
CN(c1ccc([S+](C)[O-])cc1)S(=O)(=O)c1cccc(C(=O)Nc2ccc(C#N)cc2F)c1 (stereo not drawn) [Compound 203Aj, N-(4-cyano-2-fluorophenyl)-3-(N-methyl-N-(4-(methylsulfinyl)phenyl)sulfamoyl)-benzamide] | 192 to 194 °C | 10%
CN(C(=O)c1cccc(S(=O)(=O)N(C)c2ccc(S(C)(=O)=O)cc2)c1)c1ccc(C#N)cc1F [Compound 203Ak, N-(4-cyano-2-fluorophenyl)-N-methyl-3-(N-methyl-N-(4-(methylsulfonyl)phenyl)-sulfamoyl)benzamide] | 156 to 157 °C | 0%
CN(C(=O)c1cccc(S(=O)(=O)N(C)c2ccc([S+](C)[O-])cc2)c1)c1ccc(C#N)cc1F (stereo not drawn) [Compound 203Al, N-(4-cyano-2-fluorophenyl)-N-methyl-3-(N-methyl-N-(4-(methylsulfinyl)phenyl)-sulfamoyl)benzamide] | 148 to 150 °C | 0%
CN(c1ccc(Cl)cc1)S(=O)(=O)c1cc(C(=O)Nc2ccc(C#N)cc2)ccn1 [Compound 203Am, 2-(N-(4-chlorophenyl)-N-methylsulfamoyl)-N-(4-cyanophenyl)isonicotinamide] | 195 to 197 °C | 
CN(c1ccc(Cl)cc1)S(=O)(=O)c1cc(C(=O)Nc2ccc([S+](C)[O-])cc2)ccn1 (stereo not drawn) [Compound 203An, 2-(N-(4-chlorophenyl)-N-methylsulfamoyl)-N-(4-(methylsulfinyl)phenyl)-isonicotinamide] | 172 to 174 °C | 28%
CN(c1ccc([S+](C)[O-])cc1)S(=O)(=O)c1cc(C(=O)Nc2ccc(Cl)cc2F)ccn1 (stereo not drawn) [Compound 203Aq, N-(4-chloro-2-fluorophenyl)-2-(N-methyl-N-(4-(methylsulfinyl)phenyl)sulfamoyl)-isonicotinamide] | 178 to 179 °C | 14%
CN(c1ccc([S+](C)[O-])cc1)S(=O)(=O)c1cc(C(=O)Nc2ccc(C#N)cc2)ccn1 (stereo not drawn) [Compound 203Ar, N-(4-cyanophenyl)-2-(N-methyl-N-(4-(methylsulfinyl)phenyl)sulfamoyl)-isonicotinamide] | 243 to 245 °C (dec.) | 20%
CN(c1ccc(S(C)(=O)=O)cc1)S(=O)(=O)c1cc(C(=O)Nc2ccc(C#N)cc2)ccn1 [Compound 203As, N-(4-cyanophenyl)-2-(N-methyl-N-(4-(methylsulfonyl)phenyl)sulfamoyl)-isonicotinamide] | 224 to 226 °C | 33%
N#Cc1ccc(NC(=O)c2cccc(S(=O)(=O)N(c3ccc(Cl)cc3)C3CC3)c2)cc1 [Compound 203Av, 3-(N-(4-chlorophenyl)-N-cyclopropylsulfamoyl)-N-(4-cyanophenyl)benzamide] | 180 to 182 °C | 51%
CC(=O)c1ccc(N(C2CC2)S(=O)(=O)c2cccc(C(=O)Nc3ccc(C#N)cc3)c2)cc1 [Compound 203Aw, 3-(N-(4-acetylphenyl)-N-cyclopropylsulfamoyl)-N-(4-cyanophenyl)benzamide] | 185 to 186 °C | 61%

SMILES | melting point | inhibition at 10 µM (SIRT2)
CCN(c1ccc(O)cc1)S(=O)(=O)c1cccc(C(=O)Nc2ccc(C#N)cc2)c1 [Compound 203Ay, N-(4-cyanophenyl)-3-(N-ethyl-N-(4-hydroxyphenyl)sulfamoyl)benzamide] | 102 to 104 °C | 40%
CCOc1ccc(N(CC)S(=O)(=O)c2cccc(C(=O)Nc3ccc(C#N)cc3)c2)cc1 [Compound 203Az, N-(4-cyanophenyl)-3-(N-(4-ethoxyphenyl)-N-ethylsulfamoyl)benzamide] | 168 to 169 °C | 59%
CCN(c1ccc(OC)cc1)S(=O)(=O)c1cccc(C(=O)Nc2ccc(C#N)cc2)c1 [Compound 203Ba, N-(4-cyanophenyl)-3-(N-ethyl-N-(4-methoxyphenyl)sulfamoyl)benzamide] | 168 to 169 °C | 53%
Cc1cc(Br)ccc1NC(=O)c1cccc(S(=O)(=O)N2CCCCCC2)c1 [Compound 203b, 3-(azepan-1-ylsulfonyl)-N-(4-bromo-2-methylphenyl)benzamide] | 177 to 179 °C | 0%
CCCN(CCC)S(=O)(=O)c1cccc(C(=O)Nc2ccc(Br)cc2C)c1 [Compound 203c, N-(4-bromo-2-methylphenyl)-3-(N,N-dipropylsulfamoyl)benzamide] | 135 to 136 °C | 0%
CCCN(CCC)S(=O)(=O)c1cccc(C(=O)Nc2ccc(Br)cc2)c1 [Compound 203d, N-(4-bromophenyl)-3-(N,N-dipropylsulfamoyl)benzamide] | 160 to 162 °C | 9%
CCCN(CCC)S(=O)(=O)c1cccc(C(=O)Nc2cccc(Br)c2)c1 [Compound 203f, N-(3-bromophenyl)-3-(N,N-dipropylsulfamoyl)benzamide] | 105 to 107 °C | 60%
CCCN(CCC)S(=O)(=O)c1cccc(C(=O)Nc2cccc([N+](=O)[O-])c2)c1 [Compound 203h, 3-(N,N-dipropylsulfamoyl)-N-(3-nitrophenyl)benzamide] | 126 to 128 °C | 50%
CC(=O)Nc1cccc(NC(=O)c2cccc(S(=O)(=O)N3CCCCCC3)c2)c1 [Compound 203k, N-(3-acetamidophenyl)-3-(azepan-1-ylsulfonyl)benzamide] | 117 to 120 °C | 59%
CN(C(=O)c1cccc(S(=O)(=O)N(C)c2ccc(Br)cc2)c1)c1ccc(Cl)cc1F [Compound 203p, 3-(N-(4-bromophenyl)-N-methylsulfamoyl)-N-(4-chloro-2-fluorophenyl)-N-methylbenzamide] | 127 to 128 °C | 
CN(C(=O)c1cccc(S(=O)(=O)N(C)c2ccc(Br)cc2)c1)c1ccc(Br)cc1F [Compound 203s, N-(4-bromo-2-fluorophenyl)-3-(N-(4-bromophenyl)-N-methylsulfamoyl)-N-methylbenzamide] | 136 to 137 °C | 
O=C(Cc1ccc(Cl)cc1)c1cccc(S(=O)(=O)N2CCCCCC2)c1 [Compound 231a, 1-(3-(azepan-1-ylsulfonyl)phenyl)-2-(4-chlorophenyl)ethanone] | 135 to 136 °C | 
N#Cc1ccc(COc2cccc(/C(N)=N\c3ccc(C#N)cc3)c2)cc1 [Compound 234b, 3-((4-cyanobenzyl)oxy)-N′-(4-cyanophenyl)benzimidamide hydrochloride] |  | 12%
C[C@@H](Oc1cccc(/C(N)=N\c2ccc(C#N)cc2)c1)c1ccc(C#N)cc1 [Compound 234c, (R)—N′-(4-cyanophenyl)-3-(1-(4-cyanophenyl)ethoxy)benzimidamide hydrochloride] |  | 39%
COc1ccc(N(C)S(=O)(=O)c2cccc(/C(N)=N\c3ccc(C#N)cc3)c2)cc1 [Compound 234d, N′-(4-cyanophenyl)-3-(N-(4-methoxyphenyl)-N-methylsulfamoyl)benzimidamide hydrochloride] |  | 12%
N/C(=N/c1cccc([N+](=O)[O-])c1)c1cccc(S(=O)(=O)N2CCCCCC2)c1 [Compound 234e, 3-(azepan-1-ylsulfonyl)-N′-(3-nitrophenyl)benzimidamide] |  | 27%
